Experimental data: US11377442B2, “Small molecule agonists and antagonists of NR2F6 activity” (ZANDER THERAPEUTICS, INC., priority 2016, dated 2022)
Read-outs that look alike come from different tables or passages of the source.

Columns and labels:
Assay type in all cases: cell-based
[1] = target: T1, NR2F6 LBD (Homo sapiens, UniProt P10588); assay: NR2F6 LBD transient transfection; conditions: LBD
T1 construct: expressed in transfected cells
T1 sequence (P10588 165-393 limits assumed): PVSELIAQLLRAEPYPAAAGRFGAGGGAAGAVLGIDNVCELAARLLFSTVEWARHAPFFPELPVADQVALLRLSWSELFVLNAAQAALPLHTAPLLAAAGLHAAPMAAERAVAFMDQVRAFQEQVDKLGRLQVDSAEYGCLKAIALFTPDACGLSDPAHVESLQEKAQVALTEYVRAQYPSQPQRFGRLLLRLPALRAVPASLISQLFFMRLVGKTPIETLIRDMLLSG
Procedure, shortened: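 LBD-transfected cells treated at 40, 10, 2 and 0.5 μM (4 replicates); cytotoxicity measured in parallel, normalized to DMSO (0%) and zero signal (100%). Higher concentrations excluded where signal loss reflected toxicity.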

[2] = target: T2, NR2F6 (Homo sapiens, UniProt P10588); assay: NR2F6 agonist screening, Firefly signal cmpd/DMSO
T2 construct: expressed in transfected cells; also transient transfection
T2 sequence (P10588 1-404): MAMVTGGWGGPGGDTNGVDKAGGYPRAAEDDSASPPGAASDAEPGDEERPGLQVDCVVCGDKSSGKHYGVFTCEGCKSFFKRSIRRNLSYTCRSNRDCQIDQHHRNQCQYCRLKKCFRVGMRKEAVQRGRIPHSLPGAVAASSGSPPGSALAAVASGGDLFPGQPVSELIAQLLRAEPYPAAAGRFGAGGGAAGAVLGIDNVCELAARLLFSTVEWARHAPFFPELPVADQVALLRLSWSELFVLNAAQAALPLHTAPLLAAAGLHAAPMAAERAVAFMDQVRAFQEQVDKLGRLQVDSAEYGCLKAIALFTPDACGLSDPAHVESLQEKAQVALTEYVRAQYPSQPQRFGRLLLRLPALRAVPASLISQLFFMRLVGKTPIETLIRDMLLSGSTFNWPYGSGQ

[3] = system: Renilla; assay: Renilla signal in NR2F6 agonist screening, cmpd/DMSO; conditions: Renilla, F4
[4] = system: HEK293 pGL4; assay: Firefly_pGL signal, cmpd/DMSO (pGL4 control cells); conditions: Homo sapiens
[5] = read-out: Renilla, F4, cmpd/DMSO (mean)
[6] = 1% FBS, read-out: Renilla, F4, 1% FBS, cmpd/DMSO (mean)
[7] = 10% FBS, read-out: Renilla, F4, 10% FBS, cmpd/DMSO (mean)
[8] = HEK293, 0.5 uM, pGL4, read-out: Firefly pGL4, cmpd/DMSO (mean)
[9] = HEK293, 2 uM, pGL4, read-out: Firefly pGL4, cmpd/DMSO (mean)
[10] = HEK293, 10 uM, pGL4, read-out: Firefly pGL4, cmpd/DMSO (mean)
[11] = HEK293, 40 uM, pGL4, read-out: Firefly pGL4, cmpd/DMSO (mean)
[12] = HEK293, pGL4, 1% FBS, 0.5 uM, read-out: Firefly, pGL4, 1% FBS, cmpd/DMSO (mean)
[13] = HEK293, pGL4, 1% FBS, 2 uM, read-out: Firefly, pGL4, 1% FBS, cmpd/DMSO (mean)
[14] = HEK293, pGL4, 1% FBS, 10 uM, read-out: Firefly, pGL4, 1% FBS, cmpd/DMSO (mean)
[15] = HEK293, pGL4, 1% FBS, 40 uM, read-out: Firefly, pGL4, 1% FBS, cmpd/DMSO (mean)
[16] = HEK293, pGL4, 10% FBS, 0.5 uM, read-out: Firefly, pGL4, 10% FBS, cmpd/DMSO (mean)
[17] = HEK293, pGL4, 10% FBS, 2 uM, read-out: Firefly, pGL4, 10% FBS, cmpd/DMSO (mean)
[18] = HEK293, pGL4, 10% FBS, 10 uM, read-out: Firefly, pGL4, 10% FBS, cmpd/DMSO (mean)
[19] = HEK293, pGL4, 10% FBS, 40 uM, read-out: Firefly, pGL4, 10% FBS, cmpd/DMSO (mean)

COc1ccc(CCN[C@H]2CS(=O)(=O)C[C@@H]2S(=O)(=O)c2ccc(Cl)cc2)cc1OC [Compound D129]
Firefly LBD, cmpd/DMSO (mean) ([1]; 0.5 uM): 1.1
Firefly LBD, cmpd/DMSO (mean) ([1]; 2 uM): 1.7
Firefly LBD, cmpd/DMSO (mean) ([1]; 10 uM): 2.7
Firefly LBD, cmpd/DMSO (mean) ([1]; 40 uM): 2.4
Firefly F4, cmpd/DMSO (mean) ([2]; 0.5 uM): 1.2
Firefly F4, cmpd/DMSO (mean) ([2]; 2 uM): 2.0
Firefly F4, cmpd/DMSO (mean) ([2]; 10 uM): 4.3
Firefly F4, cmpd/DMSO (mean) ([2]; 40 uM): 3.4
F4, Firefly/Renilla for S/B(F4) > 3 ([2]; 10% FBS, 40 uM): 2.6
Firefly, F4/pGL4 for S/B(F4) > 3 ([2]; 10% FBS, 40 uM): 1.8
Firefly, F4, 1% FBS, cmpd/DMSO (mean) ([2]; 0.5 uM): 0.9
Firefly, F4, 1% FBS, cmpd/DMSO (mean) ([2]; 2 uM): 1.1
Firefly, F4, 1% FBS, cmpd/DMSO (mean) ([2]; 10 uM): 2.9
Firefly, F4, 1% FBS, cmpd/DMSO (mean) ([2]; 40 uM): 1.4
Firefly, F4, 10% FBS, cmpd/DMSO (mean) ([2]; 10% FBS, 0.5 uM): 1.1
Firefly, F4, 10% FBS, cmpd/DMSO (mean) ([2]; 10% FBS, 2 uM): 0.8
Firefly, F4, 10% FBS, cmpd/DMSO (mean) ([2]; 10% FBS, 10 uM): 1.9
Firefly, F4, 10% FBS, cmpd/DMSO (mean) ([2]; 10% FBS, 40 uM): 4.1
fold induction at 0.5 µM [3, 5]: 1.1
fold induction at 2 µM [3, 5]: 1.2
fold induction at 10 µM [3, 5]: 1.4
fold induction at 40 µM [3, 5]: 1.6
fold induction at 0.5 µM [3, 6]: 1.1
fold induction at 2 µM [3, 6]: 1.1
fold induction at 10 µM [3, 6]: 1.6
fold induction at 40 µM [3, 6]: 1.5
fold induction at 0.5 µM [3, 7]: 1
fold induction at 2 µM [3, 7]: 0.9
fold induction at 10 µM [3, 7]: 1.1
fold induction at 40 µM [3, 7]: 1.5
fold induction at 0.5 µM [4, 8]: 1.4
fold induction at 2 µM [4, 9]: 1.5
fold induction at 10 µM [4, 10]: 2.9
fold induction at 40 µM [4, 11]: 1.6
fold induction at 0.5 µM [4, 12]: 1.4
fold induction at 2 µM [4, 13]: 1.2
fold induction at 10 µM [4, 14]: 1.9
fold induction at 40 µM [4, 15]: 1.6
fold induction at 0.5 µM [4, 16]: 1
fold induction at 2 µM [4, 17]: 1
fold induction at 10 µM [4, 18]: 2
fold induction at 40 µM [4, 19]: 2.2

CC(=O)Nc1ccc(S(=O)(=O)[C@H]2CS(=O)(=O)C[C@@H]2NC2CC2)cc1 [Compound D133]
Firefly LBD, cmpd/DMSO (mean) ([1]; 0.5 uM): 1.1
Firefly LBD, cmpd/DMSO (mean) ([1]; 2 uM): 1.1
Firefly LBD, cmpd/DMSO (mean) ([1]; 10 uM): 1.4
Firefly LBD, cmpd/DMSO (mean) ([1]; 40 uM): 1.1
Firefly F4, cmpd/DMSO (mean) ([2]; 0.5 uM): 1.0
Firefly F4, cmpd/DMSO (mean) ([2]; 2 uM): 1.4
Firefly F4, cmpd/DMSO (mean) ([2]; 10 uM): 1.8
Firefly F4, cmpd/DMSO (mean) ([2]; 40 uM): 1.3
Firefly, F4, 1% FBS, cmpd/DMSO (mean) ([2]; 0.5 uM): 0.8
Firefly, F4, 1% FBS, cmpd/DMSO (mean) ([2]; 2 uM): 0.8
Firefly, F4, 1% FBS, cmpd/DMSO (mean) ([2]; 10 uM): 1.2
Firefly, F4, 1% FBS, cmpd/DMSO (mean) ([2]; 40 uM): 0.9
Firefly, F4, 10% FBS, cmpd/DMSO (mean) ([2]; 10% FBS, 0.5 uM): 1.5
Firefly, F4, 10% FBS, cmpd/DMSO (mean) ([2]; 10% FBS, 2 uM): 0.9
Firefly, F4, 10% FBS, cmpd/DMSO (mean) ([2]; 10% FBS, 10 uM): 1.0
Firefly, F4, 10% FBS, cmpd/DMSO (mean) ([2]; 10% FBS, 40 uM): 1.0
fold induction at 0.5 µM [3, 5]: 1
fold induction at 2 µM [3, 5]: 1
fold induction at 10 µM [3, 5]: 1.1
fold induction at 40 µM [3, 5]: 1.1
fold induction at 0.5 µM [3, 6]: 1
fold induction at 2 µM [3, 6]: 1
fold induction at 10 µM [3, 6]: 1
fold induction at 40 µM [3, 6]: 1.1
fold induction at 0.5 µM [3, 7]: 0.9
fold induction at 2 µM [3, 7]: 0.9
fold induction at 10 µM [3, 7]: 1
fold induction at 40 µM [3, 7]: 1
fold induction at 0.5 µM [4, 8]: 1.1
fold induction at 2 µM [4, 9]: 1.1
fold induction at 10 µM [4, 10]: 1.9
fold induction at 40 µM [4, 11]: 1.1
fold induction at 0.5 µM [4, 12]: 1.3
fold induction at 2 µM [4, 13]: 1.1
fold induction at 10 µM [4, 14]: 1.3
fold induction at 40 µM [4, 15]: 1
fold induction at 0.5 µM [4, 16]: 0.9
fold induction at 2 µM [4, 17]: 0.9
fold induction at 10 µM [4, 18]: 1.3
fold induction at 40 µM [4, 19]: 1.2
